Laboratory results reported in patent publication US10730889B2, “Amido spirocyclic amide and sulfonamide derivatives” (Forma TM, LLC, priority 2012, dated 2020).

Each compound was assayed on A2780 cells (assay: In-vitro cell proliferation assay (SRB, 72 hours)). Settings: A2780 cells, 72 hours, SRB; read-out: Cell Proliferation (IC50).
Format: cell-based
In the case of CC1(C)CC1C(=O)N1CCC2(CC1)CC2CNC(=O)c1cc2cnccc2[nH]1 (stereo not drawn) [Example 348, N-[[6-(2,2-dimethylcyclopropanecarbonyl)-6-azaspiro[2.5]octan-2-yl]methyl]-1H-pyrrolo[3,2-c]pyridine-2-carboxamide], the IC50 is reported as 42.6 nM.
CC1(C)CC1C(=O)N1CCC2(CC1)CC2CNC(=O)c1cc2cnccc2[nH]1 (stereo not drawn) [Example 364, N-[[6-(2,2-dimethylcyclopropanecarbonyl)-6-azaspiro[2.5]octan-2-yl]methyl]-1H-pyrrolo[3,2-c]pyridine-2-carboxamide] was tested, and the IC50 was 110 nM.

Same assay, conditions: Homo sapiens, A2780, 72 h, A2780 cells, 72 hours, SRB; read-out: Cell Proliferation (IC50)
In the case of O=C(NCC1CC12CCN(C(=O)c1n[nH]c3c1CCC3)CC2)c1cc2ccncc2o1 (stereo not drawn) [Example 333, N-[[6-(1,4,5,6-tetrahydrocyclopenta[c]pyrazole-3-carbonyl)-6-azaspiro[2.5]octan-2-yl]methyl]furo[2,3-c]pyridine-2-carboxamide], the IC50 is reported as 6.81 nM.
Cc1nc(C(=O)N2CCC3(CC2)CC3CNC(=O)c2cc3ccncc3o2)c(C)o1 (stereo not drawn) [Example 334, N-[[6-(2,5-dimethyloxazole-4-carbonyl)-6-azaspiro[2.5]octan-2-yl]methyl]furo[2,3-c]pyridine-2-carboxamide] showed an IC50 of 56.5 nM.
Work on Cc1nn(C)cc1C(=O)N1CCC2(CC1)CC2CNC(=O)c1cc2ccncc2o1 (stereo not drawn) [Example 335, N-[[6-(1,3-dimethylpyrazole-4-carbonyl)-6-azaspiro[2.5]octan-2-yl]methyl]furo[2,3-c]pyridine-2-carboxamide] yielded an IC50 of 590 nM.
In the case of O=C(NCC1CC12CCN(C(=O)c1cnco1)CC2)c1cc2ccncc2o1 (stereo not drawn) [Example 336, N-[[6-(oxazole-5-carbonyl)-6-azaspiro[2.5]octan-2-yl]methyl]furo[2,3-c]pyridine-2-carboxamide], the IC50 is reported as 63.5 nM.
O=C(NCC1CC12CCN(C(=O)c1cnoc1)CC2)c1cc2ccncc2o1 (stereo not drawn) [Example 337, N-[[6-(isoxazole-4-carbonyl)-6-azaspiro[2.5]octan-2-yl]methyl]furo[2,3-c]pyridine-2-carboxamide] showed an IC50 of 23.1 nM.
O=C(NCC1CC12CCN(C(=O)c1ncc[nH]1)CC2)c1cc2ccncc2o1 (stereo not drawn) [Example 338, N-[[6-(1H-imidazole-2-carbonyl)-6-azaspiro[2.5]octan-2-yl]methyl]furo[2,3-c]pyridine-2-carboxamide] was tested, and the IC50 was 2000 nM.
Work on CN1CCN(c2ccc(C(=O)N3CCC4(CC3)CC4CNC(=O)c3cc4ccncc4o3)cc2)CC1 (stereo not drawn) [Example 339, N-[[6-[4-(4-Methylpiperazin-1-yl)benzoyl]-6-azaspiro[2.5]octan-2-yl]methyl]furo[2,3-c]pyridine-2-carboxamide] yielded an IC50 of 1.9 nM.
O=C(NCC1CC12CCN(C(=O)c1cnc3[nH]cnc3c1)CC2)c1cc2ccncc2o1 (stereo not drawn) [Example 340, N-[[6-(3H-imidazo[4,5-b]pyridine-6-carbonyl)-6-azaspiro[2.5]octan-2-yl]methyl]furo[2,3-c]pyridine-2-carboxamide] gave an IC50 of 429 nM.
In the case of Cc1ccc(C(=O)N2CCC3(CC2)CC3CNC(=O)c2cc3ccncc3o2)nc1 (stereo not drawn) [Example 341, N-[[6-(5-methylpyridine-2-carbonyl)-6-azaspiro[2.5]octan-2-yl)methyl]furo[2,3-c]pyridine-2-carboxamide], the IC50 is reported as 717 nM.
For CN1CCN(Cc2ccc(C(=O)N3CCC4(CC3)CC4CNC(=O)c3cc4cnccc4[nH]3)cc2)CC1 (stereo not drawn) [Example 343, N-[[6-[4-[(4-methylpiperazin-1-yl)methyl]benzoyl]-6-azaspiro[2.5]octan-2-yl]methyl]-1H-pyrrolo[3,2-c]pyridine-2-carboxamide], the IC50 was 42.5 nM.
CN1CCN(Cc2cccc(C(=O)N3CCC4(CC3)CC4CNC(=O)c3cc4cnccc4[nH]3)c2)CC1 (stereo not drawn) [Example 344, N-[[6-[3-[(4-methylpiperazin-1-yl)methyl]benzoyl]-6-azaspiro[2.5]octan-2-yl]methyl]-1H-pyrrolo[3,2-c]pyridine-2-carboxamide] showed an IC50 of 72 nM.
CN(C)Cc1ccc(C(=O)N2CCC3(CC2)CC3CNC(=O)c2cc3cnccc3[nH]2)cc1 (stereo not drawn) [Example 345, N-[[6-[4-[(dimethylamino)methyl]benzoyl]-6-azaspiro[2.5]octan-2-yl]methyl]-1H-pyrrolo[3,2-c]pyridine-2-carboxamide] gave an IC50 of 80.8 nM.
CN1CCN(Cc2ccc(C(=O)N3CCC4(CC3)CC4CNC(=O)N3Cc4ccncc4C3)cc2)CC1 (stereo not drawn) [Example 346, N-[[6-[4-[(4-methylpiperazin-1-yl)methyl]benzoyl]-6-azaspiro[2.5]octan-2-yl]methyl]-1,3-dihydropyrrolo[3,4-c]pyridine-2-carboxamide] was tested, and the IC50 was 6.01 nM.
Work on CC(C)(CO)OC(=O)N1CCC2(CC1)CC2CNC(=O)N1Cc2ccncc2C1 (stereo not drawn) [Example 351, (2-hydroxy-1,1-dimethyl-ethyl) 2-[(1,3-dihydropyrrolo[3,4-c]pyridine-2-carbonylamino)methyl]-6-azaspiro[2.5]octane-6-carboxylate] yielded an IC50 of 3.56 nM.
Work on O=C(NCC1CC12CCN(C(=O)c1cc(C3CC3)n[nH]1)CC2)N1Cc2ccncc2C1 (stereo not drawn) [Example 353, N-[[6-(3-cyclopropyl-1H-pyrazole-5-carbonyl)-6-azaspiro[2.5]octan-2-yl]methyl]-1,3-dihydropyrrolo[3,4-c]pyridine-2-carboxamide] yielded an IC50 of 7.55 nM.
With Cn1cc(-c2ccno2)c(C(=O)N2CCC3(CC2)CC3CNC(=O)N2Cc3ccncc3C2)n1 (stereo not drawn) [Example 354, N-[[6-(4-isoxazol-5-yl-1-methyl-pyrazole-3-carbonyl)-6-azaspiro[2.5]octan-2-yl]methyl]-1,3-dihydropyrrolo[3,4-c]pyridine-2-carboxamide] the IC50 was 7.07 nM.
Compound CN1CCC(C)(CC(=O)N2CCC3(CC2)CC3CNC(=O)N2Cc3ccncc3C2)CC1 (stereo not drawn) [Example 356, N-[[6-[2-(1,4-dimethyl-4-piperidyl)acetyl]-6-azaspiro[2.5]octan-2-yl]methyl]-1,3-dihydropyrrolo[3,4-c]pyridine-2-carboxamide] has an IC50 of 7.62 nM.
In the case of N#Cc1ccccc1CC(=O)N1CCC2(CC1)CC2CNC(=O)N1Cc2ccncc2C1 (stereo not drawn) [Example 357, N-[[6-[2-(2-cyanophenyl)acetyl]-6-azaspiro[2.5]octan-2-yl]methyl]-1,3-dihydropyrrolo[3,4-c]pyridine-2-carboxamide], the IC50 is reported as 10.6 nM.
With CC(=O)NCC(C)(C)OC(=O)N1CCC2(CC1)CC2CNC(=O)N1Cc2ccncc2C1 (stereo not drawn) [Example 358, (2-acetamido-1,1-dimethyl-ethyl)2-[(1,3-dihydropyrrolo[3,4-c]pyridine-2-carbonylamino)methyl]-6-azaspiro[2.5]octane-6-carboxylate] the IC50 was 9.19 nM.
Work on C=C/N=C\C1=CCN(C(=O)NCC2CC23CCN(C(=O)CCC(C)(C)O)CC3)C1 (stereo not drawn) [Example 360, N-[[6-(4-hydroxy-4-methyl-pentanoyl)-6-azaspiro[2.5]octan-2-yl]methyl]-1,3-dihydropyrroIo[3,4-c]pyridine-2-carboxamide] yielded an IC50 of 50.9 nM.
In the case of CC1(NC(=O)N2CCC3(CC2)CC3CNC(=O)N2Cc3ccncc3C2)COC1 (stereo not drawn) [Example 361, N-[[6-[(3-methyloxetan-3-yl)carbamoyl]-6-azaspiro[2.5]octan-2-yl]methyl]-1,3-dihydropyrrolo[3,4-c]pyridine-2-carboxamide], the IC50 is reported as 56.1 nM.
For CN1CCN(c2ccc(C(=O)N3CCC4(CC3)CC4CNC(=O)N3Cc4ccncc4C3)cc2)CC1 (stereo not drawn) [Example 362, N-[[6-[4-(4-methylpiperazin-1-yl)benzoyl]-6-azaspiro[2.5]octan-2-yl]methyl]-1,3-dihydropyrrolo[3,4-c]pyridine-2-carboxamide], the IC50 was 1.9 nM.
CN1CCN(c2ccc(C(=O)N3CCC4(CC3)CC4CNC(=O)c3cc4cnccc4[nH]3)cc2)CC1 (stereo not drawn) [Example 363, N-[[6-[4-(4-methylpiperazin-1-yl)benzoyl]-6-azaspiro[2.5]octan-2-yl]methyl]-1H-pyrrolo[3,2-c]pyridine-2-carboxamide] gave an IC50 of 11.4 nM.
For O=C(NCC1CC12CCN(C(=O)c1cc(C3CC3)n[nH]1)CC2)c1cc2cnccc2[nH]1 (stereo not drawn) [Example 368, N-[[6-(3-cyclopropyl-1H-pyrazole-5-carbonyl)-6-azaspiro[2.5]octan-2-yl]methyl]-1H-pyrrolo[3,2-c]pyridine-2-carboxamide], the IC50 was 991 nM.
With Cn1cc(-c2ccno2)c(C(=O)N2CCC3(CC2)CC3CNC(=O)c2cc3cnccc3[nH]2)n1 (stereo not drawn) [Example 369, N-[[6-(4-isoxazol-5-yl-1-methyl-pyrazole-3-carbonyl)-6-azaspiro[2.5]octan-2-yl]methyl]-1H-pyrrolo[3,2-c]pyridine-2-carboxamide] the IC50 was 93.3 nM.
Compound Cc1nc(C)c(C(=O)N2CCC3(CC2)CC3CNC(=O)c2cc3cnccc3[nH]2)o1 (stereo not drawn) [Example 370, N-[[6-(2,4-dimethyloxazole-5-carbonyl)-6-azaspiro[2.5]octan-2-yl]methyl]-1H-pyrrolo[3,2-c]pyridine 2-carboxamide] has an IC50 of 115 nM.
CC1(C)CC1C(=O)N1CCC2(CC1)CC2CNC(=O)c1cc2ccncc2o1 (stereo not drawn) [Example 371, N-[[6-(2,2-dimethylcyclopropanecarbonyl)-6-azaspiro[2.5]octan-2-yl]methyl]furo[2,3-c]pyridine-2-carboxamide] gave an IC50 of 30.2 nM.
With CN1CCN(C(=O)c2ccc(C(=O)N3CCC4(CC3)CC4CNC(=O)N3Cc4ccncc4C3)cc2)CC1 (stereo not drawn) [Example 372, N-[[6-[4-(4-methylpiperazine-1-carbonyl)benzoyl]-6-azaspiro[2.5]octan-2-yl]methyl]-1,3-dihydropyrrolo[3,4-c]pyridine-2-carboxamide] the IC50 was 27.5 nM.
Work on CC1(OC(=O)N2CCC3(CC2)CC3CNC(=O)N2Cc3ccncc3C2)CCOC1 (stereo not drawn) [Example 375, (3-methyltetrahydrofuran-3-yl) 2-[(1,3-dihydropyrrolo[3,4-c]pyridine-2-carbonylamino)methyl]-6-azaspiro[2.5]octane-6-carboxylate] yielded an IC50 of 1.11 nM.
In the case of CC(C)(O)COC(=O)N1CCC2(CC1)CC2CNC(=O)N1Cc2ccncc2C1 (stereo not drawn) [Example 376, (2-hydroxy-2-methyl-propyl) 2-[(1,3-dihydropyrrolo[3,4-c]pyridine-2-carbonylamino)methyl]-6-azaspiro[2.5]octane-6-carboxylate], the IC50 is reported as 16.1 nM.
For CC(C)(C)CS(=O)(=O)N1CCC2(CC1)CC2CNC(=O)c1cc2ccncc2o1 (stereo not drawn) [Example 378, N-[[6-(2,2-dimethylpropylsulfonyl)-6-azaspiro[2.5]octan-2-yl]methyl]furo[2,3-c]pyridine-2-carboxamide], the IC50 was 2000 nM.
